Measurements as given in US20220144812A1, “QUINOLINE DERIVATIVES AND THEIR USE FOR THE TREATMENT OF CANCER” (Epizyme, Inc., priority 2019, published 2022).
pIC50: −log10 of the molar value. Like-named read-outs stand apart in the source and are kept apart here.

Columns and labels:
[1] = system: H3K18Ac in HB-CLS-2 cells; assay: H3K18AC in-cell western (ICW) assay; format: cell-based; conditions: H3K18Ac in-cell western; read-out: CREBBP ICW IC50
Procedure, shortened: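 In-cell western: after methanol fixation, blocking, overnight 4° C anti-H3K18Ac staining, then 800CW secondary plus DRAQ5 for DNA content, integrated intensities were scanned at 800 and 700 nm. Before this, compound exposure lasted 2 hr at 37° C in HB-CLS-2 cells plated 16–24 hours earlier. Values expressed as IC50 (μM).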

[2] = target: T1, CREBBP (1084-1701) (Homo sapiens, UniProt Q92793); assay: Biochemical assay for CREBBP (1084-1701), SAMDI; conditions: SAMDI, read-out: CREBBP Biochemistry IC50
T1 construct: measured in the following biochemical assay using CREBBP (1084-1701); purchased
T1 sequence (Q92793 1084-1701): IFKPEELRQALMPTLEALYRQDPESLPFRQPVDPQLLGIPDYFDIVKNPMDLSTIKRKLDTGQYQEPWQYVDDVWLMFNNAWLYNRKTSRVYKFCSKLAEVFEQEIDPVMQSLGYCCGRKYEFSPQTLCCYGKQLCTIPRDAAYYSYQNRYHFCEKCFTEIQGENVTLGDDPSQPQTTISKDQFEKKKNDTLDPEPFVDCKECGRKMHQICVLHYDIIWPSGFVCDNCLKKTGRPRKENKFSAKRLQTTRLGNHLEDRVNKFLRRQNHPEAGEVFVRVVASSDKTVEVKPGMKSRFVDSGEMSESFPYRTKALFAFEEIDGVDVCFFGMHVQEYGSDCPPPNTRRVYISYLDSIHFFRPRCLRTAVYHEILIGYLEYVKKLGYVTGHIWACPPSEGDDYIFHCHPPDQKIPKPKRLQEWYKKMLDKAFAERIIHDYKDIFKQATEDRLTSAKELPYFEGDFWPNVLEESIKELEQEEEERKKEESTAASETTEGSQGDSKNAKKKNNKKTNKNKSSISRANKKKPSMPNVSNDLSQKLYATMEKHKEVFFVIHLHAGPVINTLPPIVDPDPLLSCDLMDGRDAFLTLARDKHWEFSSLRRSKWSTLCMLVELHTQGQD
Procedure, shortened: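 Acetyltransferase activity measured by SAMDI mass spectrometry after capture on biochip. Enzyme sat with compound 30 min at RT before acetyl-CoA and biotinylated H3 11-25 (K14R, K23R) peptide were added for 30 min at RT. Formic acid quench, bicarbonate neutralisation; IC50 values reported.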

[3] = target: T2, EP300 (P300(1048-1664)) (Homo sapiens, UniProt Q09472); assay: Biochemical assay for EP300, SAMDI; conditions: EP300, SAMDI; read-out: EP300 Biochemistry IC50
T2 construct: P300(1048-1664)
T2 sequence (Q09472 1048-1664): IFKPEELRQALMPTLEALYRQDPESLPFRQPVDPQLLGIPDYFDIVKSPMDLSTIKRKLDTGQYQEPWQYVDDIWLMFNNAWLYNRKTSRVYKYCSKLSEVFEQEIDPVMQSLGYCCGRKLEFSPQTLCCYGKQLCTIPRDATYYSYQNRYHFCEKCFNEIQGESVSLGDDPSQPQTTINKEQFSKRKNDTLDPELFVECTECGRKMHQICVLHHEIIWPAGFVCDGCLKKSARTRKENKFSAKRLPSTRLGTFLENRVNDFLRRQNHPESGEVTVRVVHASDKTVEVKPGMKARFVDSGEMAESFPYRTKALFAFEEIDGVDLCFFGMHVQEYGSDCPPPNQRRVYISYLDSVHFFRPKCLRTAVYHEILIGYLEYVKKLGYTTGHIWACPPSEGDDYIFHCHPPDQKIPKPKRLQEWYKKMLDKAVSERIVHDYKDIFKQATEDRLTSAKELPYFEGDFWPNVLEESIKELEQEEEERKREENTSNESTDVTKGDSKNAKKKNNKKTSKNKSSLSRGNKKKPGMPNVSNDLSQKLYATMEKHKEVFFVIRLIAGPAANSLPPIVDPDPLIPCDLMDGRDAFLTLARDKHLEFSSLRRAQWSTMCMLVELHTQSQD
From the text: The following example describes materials and methods relating to a biochemical assay for EP300. IC50 values (micromolar (μM)) are summarized in Table 1, Table 2, and Table 3 under the column labeled: “EP300 Biochemistry IC50 (micromolar).”

[4] = system: 647V cells; assay: High throughput proliferation (HTP) assay; format: cell-based; conditions: high throughput proliferation, read-out: CREBBP HTP IC50
From the text: The following example describes methods and materials relating to a high throughput proliferation (HTP) assay. IC50 values (micromolar) are summarized in Table 1, Table 2, and Table 3 under the column labeled: “CREBBP HTP IC50 (micromolar).”
MATERIALS: 647V cell line, Dulbecco's MEM, penicillin-streptomycin, heat inactivated fetal bovine serum, D-PBS, and CellTiter-Glo were commercially available.
647V adherent cells were maintained in complete growth medium (Dulbecco's MEM supplemented with 15% v/v heat inactivated fetal bovine serum) and cultured at 37° C. under 5% CO2.
METHOD: Measurement of the effect of compound in High Throughput Proliferation (HTP) assays was performed as follows: Exponentially growing 647V cells were plated, in triplicate, in 384-well plates at the appropriate cell density in a final volume of 50 μl. Cells were incubated in the presence of increasing concentrations of compound. Viable cell number was determined at day 7 by addition of 35 μl CellTiter-Glo to each well of the plate, incubated in the dark for 30 minutes, and read on a PerkinElmer EnVision instrument to enumerate the number of cells.

| pIC50 [1] | pIC50 [2] | pIC50 [3] | SMILES | pIC50 ([4]; Homo sapiens, 647-V) | pIC50 [4] |
| --- | --- | --- | --- | --- | --- |
| 6.59 | 7.55 | 6.85 | CCn1ncc(CN(C)C(=O)c2nc(-c3ccc(OCCCNC(C)C)c(C)c3)nc3ccc(Cl)cc23)c1C [Compound 31] | 6.89 | – |
| 6.57 | 6.82 | 6.48 | CCn1ncc(CN(C)C(=O)c2nc(-c3ccc(OCCO)cc3Cl)nc3ccc(Cl)cc23)c1C [Compound 32] | 6.82 | – |
| 6.57 | 7.17 | 7.28 | CCn1ncc(CN(C)C(=O)c2nc(-c3ccc(OCCCNC)cc3C)nc3ccc(Cl)cc23)c1C [Compound 33] | 6.74 | – |
| 6.57 | 8.49 | 8.49 | CCn1ncc(CN(C)C(=O)c2nc(-c3cc(Cl)cc(NC(=O)NC)c3)nc3ccc(Cl)cc23)c1C [Compound 34] | 6.70 | – |
| 6.54 | 7.36 | 6.74 | CCn1ncc(CN(C)C(=O)c2nc(-c3ccc(OCCNC(C)=O)c(Cl)c3)nc3ccc(Cl)cc23)c1C [Compound 35] | 6.66 | – |
| 6.46 | 6.96 | 6.89 | CCn1ncc(CN(C)C(=O)c2nc(-c3ccc(OCCN4CCCC4)cc3Cl)nc3ccc(Cl)cc23)c1C [Compound 40] | 6.66 | – |
| 6.42 | 7.16 | 7.06 | CCn1ncc(CN(C)C(=O)c2nc(-c3ccc(OCCCN4CCCCC4)c(C)c3)nc3ccc(Cl)cc23)c1C [Compound 42] | 6.74 | – |
| 6.42 | 7.16 | 6.47 | CCn1ncc(CN(C)C(=O)c2nc(-c3ccc(OCCNC(C)=O)c(C)c3)nc3ccc(Cl)cc23)c1C [Compound 43] | 6.34 | – |
| 6.41 | 7.13 | 7.12 | CCn1ncc(CN(C)C(=O)c2cc(-c3ccc(OCCO)c(C)n3)nc3ccc(Cl)cc23)c1C [Compound 45] | 6.42 | – |
| 6.28 | 6.24 | 6.16 | CCn1ncc(CN(C)C(=O)c2nc(-c3cc4nc[nH]c4cc3OC)nc3ccc(Cl)cc23)c1C [Compound 51] | 6.28 | – |
| 6.24 | 6.89 | 6.55 | CCn1ncc(CN(C)C(=O)c2nc(-c3ccc(OCCCO)cc3C)nc3ccc(Cl)cc23)c1C [Compound 53] | 6.34 | – |
| 6.22 | 7.68 | 8.15 | CCn1ncc(CN(C)C(=O)c2nc(-c3cc(C)cc(NC4CCNCC4)c3)nc3ccc(Cl)cc23)c1C [Compound 55] | 6.62 | – |
| 6.20 | 6.55 | 6.24 | CCn1ncc(CN(C)C(=O)c2nc(-c3ccc(OCCNC(C)=O)cc3Cl)nc3ccc(Cl)cc23)c1C [Compound 56] | 6.28 | – |
| 6.17 | 5.82 | 6.21 | CCn1ncc(CN(C)C(=O)c2nc(-c3ccc(NC4CCOCC4)cn3)nc3ccc(Cl)cc23)c1C [Compound 58] | 5.85 | – |
| 6.15 | 6.36 | 6.62 | CCn1ncc(CN(C)C(=O)c2cc(-c3cccc(N)n3)nc3ccc(Cl)cc23)c1C [Compound 63] | 5.82 | – |
| 6.15 | 7.10 | 6.52 | CCn1ncc(CN(C)C(=O)c2nc(-c3ccc(NC4CCOCC4)c(OC)c3)nc3ccc(Cl)cc23)c1C [Compound 64] | 6.24 | – |
| 6.14 | 6.39 | 6.10 | CCn1ncc(CN(C)C(=O)c2nc(-c3cc(C(=O)NC4CCN(C)CC4)n(C)n3)nc3ccc(Cl)cc23)c1C [Compound 65] | 6.13 | – |
| 6.11 | 6.55 | 6.60 | CCn1ncc(CN(C)C(=O)c2nc(-c3ccc4cc[nH]c4c3)nc3ccc(Cl)cc23)c1C [Compound 67] | 6.26 | – |

The next lines start with the molecule.

| SMILES | pIC50 [1] | pIC50 [2] | pIC50 [3] | pIC50 ([4]; Homo sapiens, 647-V) | pIC50 [4] |
| --- | --- | --- | --- | --- | --- |
| CCn1ncc(CN(C)C(=O)c2nc(-c3ccc(OCC(O)CNC)c(Cl)c3)nc3ccc(Cl)cc23)c1C (stereo not shown) [Compound 25] | 6.68 | 7.57 | 7.48 | 7.12 | – |
| CCn1ncc(CN(C)C(=O)c2nc(-c3cc4nc[nH]c4cc3Cl)nc3ccc(Cl)cc23)c1C [Compound 26] | 6.68 | 7.08 | 6.77 | 6.89 | – |
| CCn1ncc(CN(C)C(=O)c2nc(-c3ccc(OCC(O)CN4CCCC4)c(Cl)c3)nc3ccc(Cl)cc23)c1C (stereo not shown) [Compound 27] | 6.66 | 7.41 | 7.70 | 6.96 | – |
| CCn1ncc(CN(C)C(=O)c2nc(-c3cc(C)nc(N)c3)nc3ccc(Cl)cc23)c1C [Compound 28] | 6.66 | 7.54 | 7.04 | 6.74 | – |
| CCn1ncc(CN(C)C(=O)c2cc(-c3ccc(NCCNC)cn3)nc3ccc(Cl)cc23)c1C [Compound 30] | 6.64 | 7.25 | 7.92 | 6.51 | – |
| CCc1ncc(CN(C)C(=O)c2nc(-c3cccc(Cl)c3)nc3ccc(Cl)cc23)n1C [Compound 37] | 6.52 | 8.47 | 8.21 | 6.54 | – |
| CCn1ncc(CN(C)C(=O)c2nc(-c3ccc(O[C@@H]4CNC[C@H]4O)cc3Cl)nc3ccc(Cl)cc23)c1C [Compound 38] | 6.48 | 7.47 | 7.92 | 6.64 | – |
| CCn1ncc(CN(C)C(=O)c2nc(-c3ccc4[nH]c(C)nc4c3)nc3ccc(Cl)cc23)c1C [Compound 39] | 6.47 | 6.19 | 6.17 | 6.60 | – |
| CCn1ncc(CN(C)C(=O)c2nc(-c3ccc(OCCO)c(Cl)c3)nc3ccc(Cl)cc23)c1C [Compound 41] | 6.43 | 7.21 | 6.60 | 6.80 | – |
| CCn1ncc(CN(C)C(=O)c2nc(-c3cc(C)c4n[nH]cc4c3)nc3ccc(Cl)cc23)c1C [Compound 44] | 6.42 | 7.57 | 7.08 | 6.57 | – |
| CCn1ncc(CN(C)C(=O)c2nc(-c3ccc(OCCCNC)c(C4CC4)c3)nc3ccc(Cl)cc23)c1C [Compound 46] | 6.39 | 7.39 | 6.49 | 6.70 | – |
| CCn1ncc(CN(C)C(=O)c2cc(-c3cnc[nH]3)nc3ccc(Cl)cc23)c1C [Compound 48] | 6.35 | 6.42 | 6.96 | 6.11 | – |
| CCn1ncc(CN(C)C(=O)c2nc(-c3cc(Cl)cc(NCCCNC)c3)nc3ccc(Cl)cc23)c1C [Compound 50] | 6.32 | 7.80 | 8.30 | – | 6.82 |
| CCn1ncc(CN(C)C(=O)c2nc(-c3ccc(OCCN4CCCC4)c(Cl)c3)nc3ccc(Cl)cc23)c1C [Compound 54] | 6.24 | 7.20 | 6.48 | 6.55 | – |
| CCn1ncc(CN(C)C(=O)c2nc(-c3cc(Cl)cc(OCCNC)c3)nc3ccc(Cl)cc23)c1C [Compound 60] | 6.06 | 7.64 | 7.96 | 6.30 | – |
| CCn1ncc(CN(C)C(=O)c2nc(-c3ccc(OCCCO)c(C)c3)nc3ccc(Cl)cc23)c1C [Compound 66] | 6.14 | 6.42 | 6.11 | 6.27 | – |
